These results are taken from patent US20220031636A1, “COMPOUNDS THAT ENHANCE THE ACTION OF METFORMIN” (SOCIETE DES PRODUiTS NESTLE S.A., priority 2018, published 2022).

In one assay the test system is primary hepatocytes. Kind of assay: Lipogenesis in primary hepatocytes ([1-14C]-acetate incorporation into fatty acids). The note with it: low/non-saturating concentration, 1 h at 37 C. The format is cell-based. How it is done: Hepatocyte isolation: The liver was first perfused with 50 ml perfusion buffer (Krebs-Hepes buffer with […] EDTA), followed with 50 ml collagenase A buffer (Krebs-Hepes buffer with 5 mM CaCl2) and 0.5 mg/ml collagenase). After passage through a 100 μm mesh, the cell solution was washed several times with cold media and finally the cell culture pellet was resuspended in culture medium (medium 199 (M199)+GlutaMAX, 100 U/ml penicillin G, and 100 μg/ml streptomycin, 0.1% (wt/vol) BSA, 10% FCS, 10 nM insulin, 200 nM triiodothyronine and 500 nM dexamethasone). Hepatocytes were left to attach (3-4 h) and cultured overnight in M199 supplemented with antibiotics and 100 nM dexamethasone. Cells were used for experiments the following morning.
For lipogenesis measurements in primary hepatocytes, cells were seeded at 600 K cells per well in a 6-well plate overnight. Media was replaced with fresh M199 media alone for 2 hours prior to incubation with varying concentrations of Lusianthridin or compound 1 for 1 h at 37 C, in the presence of [1-^14C]-acetate. The incorporation of [^14C] into fatty acids was determined in the lower organic layer after separation from the aqueous phase.
Lipogenesis is controlled by the AMPK substrate ACC, and phosphorylation and inhibition of ACC by AMPK, leads to a decrease in lipogenesis. Lipogenesis was measured in primary hepatocytes by determining the incorporation of ^14C-labelled acetate into fatty acids.
Lipogenesis was monitored in the presence or absence of a low/non-saturating concentration of Lusianthridin or metformin for 1 h at 37 C. Furthermore, cells were incubated in the presence of both of these compounds.

The target in assay [1] is T1, bacterially-expressed AMPKα2β1γ1 (Homo sapiens, UniProt P54619+P54646+Q9Y478).
T1 construct: His; made in house
T1 sequence (P54646 whole entry): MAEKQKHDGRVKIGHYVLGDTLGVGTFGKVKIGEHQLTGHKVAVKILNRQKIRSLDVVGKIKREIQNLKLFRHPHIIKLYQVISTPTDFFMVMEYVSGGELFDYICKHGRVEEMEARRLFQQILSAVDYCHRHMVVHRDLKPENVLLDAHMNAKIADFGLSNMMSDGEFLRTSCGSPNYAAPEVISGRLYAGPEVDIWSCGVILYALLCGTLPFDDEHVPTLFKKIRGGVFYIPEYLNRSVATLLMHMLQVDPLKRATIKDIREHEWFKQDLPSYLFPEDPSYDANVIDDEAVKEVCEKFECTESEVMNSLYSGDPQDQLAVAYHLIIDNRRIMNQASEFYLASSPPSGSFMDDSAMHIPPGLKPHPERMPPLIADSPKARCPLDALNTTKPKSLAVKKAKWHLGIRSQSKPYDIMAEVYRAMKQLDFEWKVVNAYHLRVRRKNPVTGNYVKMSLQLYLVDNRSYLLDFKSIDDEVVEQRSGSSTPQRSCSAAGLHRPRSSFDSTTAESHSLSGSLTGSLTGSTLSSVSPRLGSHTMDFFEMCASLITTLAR
T1 sequence (Q9Y478 whole entry): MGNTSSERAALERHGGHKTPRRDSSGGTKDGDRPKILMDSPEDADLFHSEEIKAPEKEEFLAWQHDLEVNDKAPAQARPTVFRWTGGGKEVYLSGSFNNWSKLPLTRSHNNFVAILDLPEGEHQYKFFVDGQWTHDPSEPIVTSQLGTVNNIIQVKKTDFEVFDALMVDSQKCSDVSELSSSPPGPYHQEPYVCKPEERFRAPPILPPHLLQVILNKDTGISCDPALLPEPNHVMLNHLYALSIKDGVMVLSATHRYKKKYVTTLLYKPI
T1 sequence (P54619 whole entry): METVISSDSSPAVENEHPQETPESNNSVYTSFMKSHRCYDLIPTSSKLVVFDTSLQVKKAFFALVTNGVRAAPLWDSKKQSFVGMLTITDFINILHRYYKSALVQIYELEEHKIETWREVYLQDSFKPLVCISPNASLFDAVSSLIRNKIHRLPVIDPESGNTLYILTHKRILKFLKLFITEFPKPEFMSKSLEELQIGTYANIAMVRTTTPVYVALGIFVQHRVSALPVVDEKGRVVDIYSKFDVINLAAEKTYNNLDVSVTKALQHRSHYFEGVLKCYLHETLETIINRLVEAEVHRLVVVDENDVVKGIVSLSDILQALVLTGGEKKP
In words: HTRF-KinEASE kinase assay of phosphorylated AMPK heterotrimer with AMP and fixed concentrations of Lusianthridin. It counts as biochemical. How it is done:
The AMPK heterotrimers were expressed in bacteria and purified through the His-α subunit by nickel purification, further purified through gel filtration and finally phosphorylated by incubation with CaMKKβ. This phosphorylated AMPK was incubated with varying concentrations of AMP for 30 mins using substrate and reagents from the HTRF-KinEASE Cisbio assay kit (STK S1 Kit). Phosphorylation of the substrate was measured by incubating with donor and acceptor antibodies for 2 h at room temperature as per the manufacturer's protocol (and Coulerie et al., (2016), see below) and phosphorylated peptide detected by performing HTRF.
(In general: In TR-FRET formats the signal depends on donor and acceptor labels being close together.)

“Also recorded” adds a separate entry of the source.

As for `CN(C)C(=N)N=C(N)N` [Metformin], the figures for the “inhibition of lipogenesis, compound alone (% lipogenesis compared to control untreated cells)” value in the assay on primary hepatocytes and in the assay on primary hepatocytes (listed as metformin) were “inhibition of lipogenesis” and “able to inhibit lipogenesis”, respectively.

Consider `Nc1ncnc2c1ncn2[C@@H]1O[C@H](COP(=O)(O)O)[C@@H](O)[C@H]1O` [AMP, reference compound], for which, in assay [1] (AMP alone, varying concentrations, 30 mins), the “AMPK activity (HTRF 665 nm/620 nm ratio)” value is reported as “dose-dependent increase in AMPK activity”. Consider `COc1cc(O)c2c(c1)CCc1cc(O)ccc1-2` [Lusianthridin, 7-Methoxy-9,10-dihydrophenanthrene-2,5-diol], for which, in the assay with primary hepatocytes, the “inhibition of lipogenesis, compound alone (% lipogenesis compared to control untreated cells)” value was “inhibition of lipogenesis; also recorded: able to inhibit lipogenesis”. Also, the “activation of AMPK in combination with AMP” value in assay [1] (fixed concentrations of Lusianthridin plus varying AMP) was “additive activation of AMPK; also recorded: Additive Effect on AMP Activation”.
